Series [1] in a line: Toxicity in subcutaneously injected NMRI mouse. The note with it: in vivo, sc. Type of series: organism-based.
Series [2] concerns Mus musculus. The series is described as follows: Survival of NMRI mouse for 30 days at 142 mg/kg, sc administered 24 hrs before cobalt 60 gamma irradiation. Type of series: functional. The note with it: light or radiation study, route subcutaneous.
Series [3] deals with Mus musculus. The series is described as follows: Survival of NMRI mouse for 30 days at 71 mg/kg, sc administered 24 hrs before cobalt 60 gamma irradiation. The format is functional. The following applies: light or radiation study, route subcutaneous.
Series [4] relates to Mus musculus. Kind of series: Increase in survival of subcutaneously dosed NMRI mouse irradiated with cobalt 60 gamma relative to control. Type of series: functional, organism-based.
The test system of series [5] is Mus musculus. Kind of series: Survival of NMRI mouse for 30 days at 214 mg/kg, sc administered 24 hrs before cobalt 60 gamma irradiation. The format is functional. The note with it: light or radiation study, route subcutaneous.
In series [6] the test system is Mus musculus. Kind of series: Survival of NMRI mouse subcutaneously dosed 30 mins before cobalt 60 gamma irradiation. The format is functional.

Activity calls are given as the source filed them. No cut-off for these calls is given here.

The term LD50 denotes the dose expected to kill half of the subjects tested. Low readings indicate greater toxicity, high ones lower toxicity.

In series [1], `O=c1cc(CO)occ1O` [KOJIC ACID] gave a 50% lethal dose (LD50) of 1400 mg/kg. In addition, the survival at 142 mg/kg in the series on Mus musculus [2] stood at 63%. The molecule also showed a survival at 71 mg/kg with Mus musculus [3] of 28%. In addition, the outcome in the series on Mus musculus [4] was Active.
`NCCCNCCSP(=O)(O)O` [AMIFOSTINE] had a survival at 214 mg/kg in the series with Mus musculus [5] of 81%. The molecule further registered a Survival in the series on Mus musculus [6] of 90%. Further, in the series on Mus musculus [4], the result was Active.

The values are drawn from ChEMBL document CHEMBL1146266, “Kojic acid and its manganese and zinc complexes as potential radioprotective agents” (Bioorg Med Chem Lett, 2007).
